# Assays:
# autotaxin = autotaxin (Homo sapiens, UniProt Q13822); details: Gierse et al., 2010; cited from earlier work
# PRG-1+/− mice [1] = assay: pre-pulse inhibition (PPI) of the startle response in PRG-1+/− mice; assay type: in vivo; details: i.p. 3 hours prior to PPI, level not different to wt
# Protocol: Animals were treated using the in-vivo potent autotaxin inhibitor PF 8380 (Gierse et al., 2010). Animals received a single i.p. injection 3 hours prior to PPI.
# PRG-1 Ko mice = assay: mEPSC recordings with PF8380, PRG-1 Ko; assay type: cell-based; details: 1 μM
# [2] = test system: MCAO mouse model of stroke; assay: medial cerebral artery occlusion (MCAO) mouse model of stroke; assay type: in vivo, mice; details: 30 mg/kg i.p. 3 hours prior to MCAO
# Protocol: (§1) For stroke experiments, mice were anesthetized and occlusion of the medial cerebral artery (MCAO) was performed for 30 min (assessment after 3 days) or for 1 h (assessment after 1day) by introduction of an intraluminal filament as reported (Ploen et al., 2014). […] After 1 h or after 30 min of MCAO, respectively, mice recovered and were perfused 24 hours (1 h MCAO) or 72 hours (30 min MCAO) later. Brains were extracted, snap frozen and cryosectioned using a cryotome. Mounted brain slices were Nissl-Stained which allowed to measure infarct area and to calculate total infarct volume per animal. All measurements were performed in a blinded fashion. Data was assessed for normality and statistical analysis was performed using an one-tailed t-test.
# [3] = test system: hippocampal slices from PRG-1 KO mice; assay: evoked EPSCs in hippocampal slices; assay type: cell-based
# PRG-1+/− mice [4] = assay: MCAO stroke model in PRG-1+/− mice; assay type: in vivo
# Protocol: as §1
# PRG1−/− mice = assay: simultaneous in-vivo recordings of MEC and hippocampal CA1 in freely moving mice
# Protocol: Electrophysiological measurements in freely moving animals were performed as described (O'Neill PK et al. 2013). Briefly, animals were kept during surgical procedures under isoflurane anesthesia and electrodes (WE3PT10.5F3, MicroProbes, Gaithersburg, Md., USA) were chronically implanted in the medial entorhinal cortex (MEC; 3.1 mm, lateral to the midline, 0.2 mm anterior to the transverse sinus at an angle of 6° in the anterior-to-posterior direction in the sagittal plane) and in the hippocampal CA1-region (1.5 mm lateral to the midline, 1.5 mm anterior-to-posterior and 1.2 mm dorsal-to-ventral at an angle of 0°). The electrodes were connected to an electrode interface board (EIB-16; Neuralynx, USA) and were secured to the skull using jewelers screws and dental cement. Neural data was acquired using a 16-channel head stage and a Digital Lynx data acquisition system (Neuralynx, USA). The animal's position was monitored using two light-emitting diodes mounted on the head stage. To extract local field potentials, the neural signals were bandpass filtered between 1 and 1000 Hz and digitized at 2 kHz. Separate recordings, each lasting 10 minutes, were made while animals moved freely in their home cage in an open field (0.5 m×0.5 m×0.5 m) and in a plus-maze with a length of 0.4 m per arm. Recordings were repeated for two days. Analysis of neural and behavioral data was performed using custom-written MATLAB scripts (MathWorks). Recording location was verified by current application at the end of the experiment after which animals were perfused, and the brains were cut on a vibratome and Nissl stained using cresyl violet.
# Coherence of neuronal activity between the MEC and in the CA1 was computed using the multitaper method (MATLAB routines provided by K. Harris, University College London, London, UK, and G. Buzsáki, New York University, New York, N.Y., USA). […] Power was calculated by taking the absolute value of the wavelet transform and averaged across time to obtain the power spectrum. […]
# [5] = test system: LPA species (LPA 16:0, 18:1, 18:2); assay: LPA species in cerebrospinal fluid (LC-ESI-MS/MS); assay type: in vivo; details: PRG-1 Ko mice, intraperitoneal injection
# Protocol: LPA analysis was performed with liquid chromatography-electrospray ionization-tandem mass spectrometry (LC-ESI-MS/MS). The LC-MS/MS system consisted in a hybrid triple quadrupole-ion trap QTrap 5500 mass spectrometer (AB Sciex, Germany) equipped with a Turbo-V-source operating in negative ESI mode, an Agilent 1200 binary HPLC pump, column oven (40° C.) and degasser and an HTC Pal autosampler.
# Two cycles of […] extraction of LPAs were done with 1-buthanol after adding the internal standard LPA17:0 to the sample (50 μl sample, 20 μl internal standard in 500 μl 1-butanol). The combined organic phases were dried under a gentle stream of nitrogen at 45° C. and subsequently re-dissolved in 200 μl methanol.
# For the chromatographic separation a C18 column (Mercury 20×2 mm, 3 μm, 100 Å) and precolumn were used (Phenomenex, Germany). A linear gradient was employed at 400 μl/min. Mobile phase A was water with ammonium formate 50 mM and formic acid (100:0.2, v/v) and mobile phase B acetonitrile/formic acid (100:0.1, v/v), total run time 7 min, injection volume 20 μl. The mass spectrometer operated in the negative ion mode with an electrospray voltage of −4500 V at 350° C. Multiple reaction monitoring (MRM) was used for quantification. […] Quantitation was performed with Analyst Software V1.5 (Applied Biosystems) using the internal standard method with 1/concentration^2 weighting. […]
# [6] = test system: animal model of schizophrenia induced by ketamine; assay: ketamine-induced animal model of schizophrenia: PPI and open field hyperactivity; assay type: in vivo, mice
# From the text: In order to correlate these electrophysiological effects with behavior in these mice, the inventors first analyzed PPI after ketamine application. […] In sum, ATX-inhibition has the general potential to normalize E/I balance in psychiatric disorders associated with increased glutamatergic input and opens a new therapeutic avenue towards treatment of psychiatric disorders.
compound,measurement,setting,value
"O=C(CCN1CCN(C(=O)OCc2cc(Cl)cc(Cl)c2)CC1)c1ccc2[nH]c(=O)oc2c1 [PF8380, 4-[3-(2,3-Dihydro-2-oxo-6-benzoxazolyl)-3-oxopropyl]-1-piperazinecarboxylic acid (3,5-dichlorophenyl)methyl ester]",potency as inhibitor of the LPA-synthetizing enzyme autotaxin,autotaxin,nanomolar potency
same,PPI-deficit,PRG-1+/− mice [1],significantly rescued
same,mEPSC amplitude,PRG-1 Ko mice,not influencing
same,mEPSC frequency,PRG-1 Ko mice,significantly reduced
same,infarct size,[2]; after 1 day (1 h MCAO),significantly reduced
same,infarct size,[2]; after 3 days (30 min MCAO),significantly reduced
same,PPR,[3],increased
same,"evoked potentials (eEPSC, first stimulus)",[3],significantly affected
same,second stimulus applied at an interval of 50 ms,[3],did not alter
same,infarct volume,PRG-1+/− mice [4]; 30 min MCAO measured 3 d after stroke,significantly decreased
same,outcome in modified Neurologic Severity Score,"PRG-1+/− mice [4]; 3 h, 24 h, 48 h and 72 h post MCAO",significantly improves
same,"long-term sensorimotor dysfunction, corner test",PRG-1+/− mice [4]; 24 h up to 72 h post MCAO,significantly improved
same,gamma coherence between MEC and CA1,PRG1−/− mice; PF8380 treated PRG1−/− mice,reduced to WT levels
same,peak frequency of theta coherence between MEC and CA1,PRG1−/− mice; PF8380 treated PRG1−/− mice compared with WT mice,lower
same,average movement speed during exploratory behavior in the open field,"PRG1−/− mice; wild type, untreated and PF8380-treated PRG-1−/− mice",no difference
same,"main LPA species (LPA 16:0, 18:1, 18:2) in CSF",[5],significant decrease
same,PPI,[6],rescued to WT values
same,hyperactivity following ketamine application in an open field setting,[6],significantly reduced

# Source: patent US20180289702A1, “LPA LEVEL REDUCTION FOR TREATING CENTRAL NERVOUS SYSTEM DISORDERS” (priority 2015, published 2018)
